According to US9676789B2, “Aminated derivative of homoharringtonine, preparation method therefor, and application thereof” (HANGZHOU BENSHENG PHARMACEUTICAL CO., LTD., priority 2011, dated 2017):
In brackets after ≈: the same amount, converted by molar mass.

Columns and labels:
[1] = tested on: RPMI8226 (multiple myeloma); experiment: MTT multiple myeloma cell growth inhibition, 72 h; type: cell-based, human; conditions: Homo sapiens, RPMI-8226, RPMI8226, 72 h; for IC50: read-out: IC50; for IC90: read-out: IC90
Description: Multiple myeloma and lymphoma cell lines: RPMI8226 (multiple myeloma), purchased from Fuxiang Bio-tech Co. Ltd., Shanghai, China.
(§1) Obtaining 6000 well-growing leukemia cells and inoculating them into wells of a 96-well cell culture plate. The culture medium is the 1640 cell culture medium containing 10% fetal bovine serum. After adding the homoharringtonine derivatives of different concentrations and mixing uniformly, placing the plate in a carbon dioxide cell incubator (5% CO2) at 37° C. and incubating for 72 hours. Then the viable cell concentration is determined by the MTT method.

[2] = tested on: K562/adr (drug-resistant, chronic myeloid leukemia, CML); experiment: MTT leukemia cell growth inhibition, 72 h; type: cell-based, human; conditions: Homo sapiens, K562/Adr; for IC50: read-out: IC50; for IC90: read-out: IC90
From the text: (§2) Leukemia cell lines: K562/adr (drug-resistant, chronic myeloid leukemia, CML), NB4 (acute promyelocytic leukemia, AML), Kasumi-1 (acute myeloid leukemia M2 type, AML-M2), Jurkat (acute lymphoblastic leukemia, ALL), all of which are donated by Cancer Research Institute of Zhejiang University, China; and H9 (acute lymphoblastic leukemia, ALL), which is purchased from China Center for Type Culture Collection.
as §1, with “method. In this experiment, the cell viability in control group (not treated with any compound) is set as 100%.” for “method.”

[3] = tested on: H9 (acute lymphoblastic leukemia, ALL); experiment: MTT leukemia cell growth inhibition, 72 h; type: cell-based, human; conditions: Homo sapiens, H9, 72 h; for IC50: read-out: IC50; for IC90: read-out: IC90
From the text: as §2
as §1, with “method. In this experiment, the cell viability in control group (not treated with any compound) is set as 100%.” for “method.”

[4] = tested on: NB4 (acute promyelocytic leukemia, AML); experiment: MTT leukemia cell growth inhibition, 72 h; type: cell-based, human; conditions: Homo sapiens, NB4, 72 h; for IC50: read-out: IC50; for IC90: read-out: IC90
From the text: as §2
as §1, with “method. In this experiment, the cell viability in control group (not treated with any compound) is set as 100%.” for “method.”

[5] = tested on: Kasumi-1 (acute myeloid leukemia M2 type, AML-M2); experiment: MTT leukemia cell growth inhibition, 72 h; type: cell-based, human; conditions: Homo sapiens, Kasumi-1, 72 h; for IC50: read-out: IC50; for IC90: read-out: IC90
From the text: as §2
as §1, with “method. In this experiment, the cell viability in control group (not treated with any compound) is set as 100%.” for “method.”

[6] = tested on: Jurkat (acute lymphoblastic leukemia, ALL); experiment: MTT leukemia cell growth inhibition, 72 h; type: cell-based, human; conditions: Homo sapiens; for IC50: read-out: IC50; for IC90: read-out: IC90
From the text: as §2
as §1, with “method. In this experiment, the cell viability in control group (not treated with any compound) is set as 100%.” for “method.”

[7] = tested on: Huh7 (human liver cancer cell); experiment: MTT solid tumor cell growth inhibition, 72 h; type: cell-based; conditions: Homo sapiens, Huh-7, Huh7, 72 h; for IC50: read-out: IC50; for IC90: read-out: IC90
Description: (§3) Human solid tumor cell lines: Hep-2 ([…]), A549 (human lung cancer), CaES-17 (esophageal cancer cell), PC-3 (prostate cancer), CNE (nasopharyngeal carcinoma cell), and SK-OV-3 (ovarian cancer cell), all of which are purchased from China Center For Type Culture Collection; RKO (human colon adenocarcinoma cell), MGC 803 (human gastric cancer cell), MG63 (osteosarcoma) and U87 MG (malignant glioma cell), all of which are purchased from Fuxiang Bio-tech Co. Ltd., Shanghai, China; PANC-1 (pancreatic cancer), Huh7 (human liver cancer cell), Becap37 (human breast cancer cell), and Hela (human cervical cancer cell), all of which are donated by Cancer Research Institute of Zhejiang University, China.
(§4) Obtaining 4000 well-growing human solid tumor cells and inoculating them into wells of a 96-well cell culture plate. The culture medium is DMEM High Glucose cell culture medium containing 10% fetal bovine serum. The plate is placed in a carbon dioxide cell incubator (5% CO2) at 37° C. and incubating for 24 hours. After adding the homoharringtonine derivatives of different concentration and mixing uniformly, the plate is placed in a carbon dioxide cell incubator (5% CO2) at 37° C. and incubating for 72 hours. Then the viable cell concentration is determined by the MTT method and the cell viability (%) after drug treatment is calculated. In this experiment, the cell viability of control group (not treated with any compound) is set as 100%.

[8] = tested on: MGC 803 (human gastric cancer cell); experiment: MTT solid tumor cell growth inhibition, 72 h; type: cell-based; conditions: Homo sapiens, MGC 803, 72 h; for IC50: read-out: IC50; for IC90: read-out: IC90
Description: as §3, §4

[9] = tested on: Becap37 (human breast cancer cell); experiment: MTT solid tumor cell growth inhibition, 72 h; type: cell-based; conditions: Homo sapiens, Becap37, 72 h; for IC50: read-out: IC50; for IC90: read-out: IC90
Description: as §3, §4

[10] = tested on: A549 (human lung cancer); experiment: MTT solid tumor cell growth inhibition, 72 h; type: cell-based; conditions: Homo sapiens, A549, 72 h; for IC50: read-out: IC50; for IC90: read-out: IC90
Description: as §3, §4

[11] = tested on: MG63 (osteosarcoma); experiment: MTT solid tumor cell growth inhibition, 72 h; type: cell-based, human; conditions: Homo sapiens, MG 63, 72 h; for IC50: read-out: IC50; for IC90: read-out: IC90
Description: as §3, §4

[12] = tested on: PANC-1 (pancreatic cancer); experiment: MTT solid tumor cell growth inhibition, 72 h; type: cell-based, human; conditions: Homo sapiens, PANC-1, 72 h; for IC50: read-out: IC50; for IC90: read-out: IC90
Description: as §3, §4

[13] = tested on: RKO (human colon adenocarcinoma cell); experiment: MTT solid tumor cell growth inhibition, 72 h; type: cell-based; conditions: Homo sapiens
Description: as §3, §4

| SMILES | IC50 [1] [µg/mL] | IC90 [1] [µg/mL] | IC50 [2] [µg/mL] | IC90 [2] [µg/mL] | IC50 [3] [µg/mL] | IC90 [3] [µg/mL] | IC50 [4] [µg/mL] | IC90 [4] [µg/mL] | IC50 [5] [µg/mL] | IC90 [5] [µg/mL] | IC50 [6] [µg/mL] | IC90 [6] [µg/mL] | IC50 [7] [µg/mL] | IC90 [7] [µg/mL] | IC50 [9] [µg/mL] | IC90 [9] [µg/mL] | IC50 [10] [µg/mL] | IC90 [10] [µg/mL] | IC50 [11] [µg/mL] | IC90 [11] [µg/mL] | also measured |
| --- | --- | --- | --- | --- | --- | --- | --- | --- | --- | --- | --- | --- | --- | --- | --- | --- | --- | --- | --- | --- | --- |
| CCN1CCN(C(=O)C[C@](O)(CCCC(C)(C)O)C(=O)O[C@@H]2C(OC)=C[C@]34CCCN3CCc3cc5c(cc3[C@H]24)OCO5)CC1 [BS-HH-041] | 1.96 (≈ 3.12 µM) | 13.4 (≈ 21.3 µM) | > 16 | > 16 | 3.2 (≈ 5.1 µM) | > 16 | 1.85 (≈ 2.95 µM) | 16 (≈ 25.5 µM) | 2.79 (≈ 4.44 µM) | 15 (≈ 23.9 µM) | 0.89 (≈ 1.42 µM) | > 16 | 16 (≈ 25.5 µM) | > 16 | 0.9 (≈ 1.43 µM) | > 16 | 8.11 (≈ 12.9 µM) | > 16 | 1.97 (≈ 3.14 µM) | > 16 | IC50 [8]: 1 µg/mL (≈ 1.59 µM); IC90 [8]: 11.8 µg/mL (≈ 18.9 µM); IC50 [12]: 6.35 µg/mL (≈ 10.1 µM); IC90 [12]: > 16 µg/mL |
| COC1=C[C@]23CCCN2CCc2cc4c(cc2[C@@H]3[C@@H]1OC(=O)[C@@](O)(CCCC(C)(C)O)CC(=O)N1CCC(C#N)CC1)OCO4 [BS-HH-035] | 1.44 (≈ 2.31 µM) | 14.1 (≈ 22.7 µM) | 14.1 (≈ 22.6 µM) | > 16 | 5.49 (≈ 8.8 µM) | > 16 | 0.72 (≈ 1.15 µM) | 6.3 (≈ 10.1 µM) | 0.8 (≈ 1.28 µM) | 2.96 (≈ 4.75 µM) | 0.87 (≈ 1.39 µM) | > 16 | 4.46 (≈ 7.15 µM) | > 16 | 3.75 (≈ 6.01 µM) | > 16 | 5.41 (≈ 8.67 µM) | > 16 | 1.98 (≈ 3.17 µM) | > 16 | IC50 [8]: 1.79 µg/mL (≈ 2.87 µM); IC90 [8]: 9.2 µg/mL (≈ 14.7 µM); IC50 [12]: 5.02 µg/mL (≈ 8.05 µM); IC90 [12]: > 16 µg/mL |
| COC1=C[C@]23CCCN2CCc2cc4c(cc2[C@@H]3[C@@H]1OC(=O)[C@@](O)(CCCC(C)(C)O)CC(=O)Nc1nccs1)OCO4 [BS-HH-008] | 11 (≈ 17.9 µM) | > 16 | > 16 | > 16 | 13.4 (≈ 21.9 µM) | > 16 | 5.62 (≈ 9.16 µM) | 12.8 (≈ 20.9 µM) | 5 (≈ 8.15 µM) | > 16 | 4.69 (≈ 7.64 µM) | 16 (≈ 26.1 µM) | 11.2 (≈ 18.3 µM) | > 16 | > 16 | > 16 | 16 (≈ 26.1 µM) | > 16 | 15.5 (≈ 25.3 µM) | > 16 | IC50 ([13]; read-out: IC50): 4.44 µg/mL (≈ 7.23 µM); IC90 ([13]; read-out: IC90): 16 µg/mL (≈ 26.1 µM); IC50 [12]: > 16 µg/mL; IC90 [12]: > 16 µg/mL |
| COC1=C[C@]23CCCN2CCc2cc4c(cc2[C@@H]3[C@@H]1OC(=O)[C@@](O)(CCCC(C)(C)O)CC(=O)N1CCCCC1C)OCO4 (stereo partly drawn) [BS-HH-037] | 1 (≈ 1.63 µM) | 9.86 (≈ 16.1 µM) | > 16 | > 16 | 3.69 (≈ 6.02 µM) | > 16 | 0.7 (≈ 1.14 µM) | 5.08 (≈ 8.29 µM) | 1.58 (≈ 2.58 µM) | 16 (≈ 26.1 µM) | 0.41 (≈ 0.669 µM) | > 16 | 16 (≈ 26.1 µM) | > 16 | 1.5 (≈ 2.45 µM) | > 16 | 1.96 (≈ 3.2 µM) | > 16 | 1.44 (≈ 2.35 µM) | 16 (≈ 26.1 µM) | IC50 [8]: 0.9 µg/mL (≈ 1.47 µM); IC90 [8]: 9.29 µg/mL (≈ 15.2 µM); IC50 [12]: 6.47 µg/mL (≈ 10.6 µM); IC90 [12]: > 16 µg/mL |
